{"source": "patent US20060111287A1", "about": "“Acetylated protein” (priority 2002, published 2006)", "key": {"U937.12 cells [1]": {"test_system": "U937.12 cells", "test": "HMGB1 relocation from nucleus to vesicles in LPS-challenged U937.12 cells (immunofluorescence)", "type": "cell-based", "procedure": "(§1) Fibroblasts and HeLa cells were cultured in Dulbecco's modified Eagle's medium (DMEM) supplemented with 10% fetal bovine serum (FBS, from Gibco), 100 IU/ml of penicillin and 100 μg/ml streptomycin, in 5% CO2 humidified atmosphere. HeLa cells and 3134 mouse fibroblasts were transfected by calcium phosphate co-precipitation. To express fluorescent proteins, 3×10^5 cells were plated in 6 cm dishes and were transiently transfected with 8 μg of the appropriate plasmid. Cells were observed 36 hours after transfection. […] About 24 hours after transfection, 3134 fibroblasts were treated for 3 hours with 10 ng/ml trichostatin A (TSA, Sigma) before fixing and imaging. Subclone 12[−] of U937 promoyelocitic cells, kindly provided by M. Alfano and G. Poli (HSR, Milano), was grown in RPMI medium (Gibco) supplemented with 10% FCS, L-glutamine, 100 U/ml penicillin 100 μg/ml streptomycin, exposed for 3 days to 0.1 μM vitamin D3 (Roche) to promote CD14 expression, and stimulated with 100 ng/ml LPS (Sigma catalogue #L4391) or with 10 ng/ml TSA for 3 hours. For the experiments with kinase inhibitors, cells were exposed to 1 μM U0126, 10 μM SB203580 or 30 μM SP600125 (all from Calbiochem) at the same time as LPS, and lasting for 3 hours. Primary human monocytes, purified from peripheral blood (a kind gift from M. Iannacone, HSR), were maintained in RPMI medium supplemented as described above, and were activated with 100 ng/ml LPS.\nCell cultured in LabTek II chambers (Nalgene) were directly fixed in 3.7% paraformaldehyde (PFA) in PHEM buffer (36.8 g/l PIPES, 13 g/l HEPES, 7.6 g/l EGTA, 1.99 g/l MgSO4, buffered to pH 7.0 with KOH) for 10 minutes at room temperature. After fixation, cells were washed with PBS and incubated for 3 minutes at 4° C. with HEPES-based permeabilization buffer containing 300 mM sucrose and 0.2% Triton X-100. Fifteen minutes of incubation in blocking solution (BlS, 0.2% BSA in PBS) followed. Primary antibodies were then diluted in BIS to the suitable final concentration and incubation was prolonged for 1 hour at room temperature. After 3 rinses with BlS, cells were incubated with secondary antibodies in BIS for one hour, washed three times with BlS, and then incubated with PBS containing 0.5 μg/ml Hoechst 33342. The polyclonal rabbit anti-HMGB1 was purchased from BD PharMingen (Torrey Pines, Calif.), and used at 1:1600 dilution. Goat polyclonal antibodies against rabbit IgG (H+L) conjugated to Alexa Fluor 594 (working dilution 1:1000) were purchased from Molecular Probes (Eugene, Oreg., USA).\nThe secretion of TNF-α, IL-1, IL-8, and PGE2 by LPS-stimulated monocytes can be blocked by inhibiting ERK phosphorylation (Scherle et al., 1998). […] U937.12 cells were exposed to 200 ng/ml LPS in the presence of 1 μM U0126 (a specific inhibitor of ERK phosphorylation), 30 μM SP600125 (a specific inhibitor of Jnk kinases) or 10 μM SB203580 (a specific inhibitor of the p38 kinases). Control cultures were not exposed to LPS, or exposed to LPS but no inhibitors."}, "human monocytes": {"test_system": "human monocytes", "test": "HMGB1 translocation to cytoplasmic vesicles in LPS-activated primary monocytes", "type": "cell-based", "details": "cycloheximide; time scale about 16-20 hours", "procedure": "as §1, with “Primary human monocytes, purified from peripheral blood (a kind gift from M. Iannacone, HSR), were maintained in RPMI medium supplemented as described above, and were activated with 100 ng/ml LPS.” left out"}, "[2]": {"test_system": "HMGB1 transfer between human and mouse nuclei", "test": "Heterokaryon assay: HMGB1 transfer from human to mouse nuclei", "type": "cell-based", "details": "for HMGB1 transfer between human and mouse nuclei in heterokaryons: 150 nM leptomycin B, 4 hours at 37° C. with cycloheximide", "text": "(A) Heterokaryons were formed by fusing HMGB1-expressing HeLa cells (human) and Hmgb1−/− mouse embryonic fibroblasts. Human cytokeratin and HMGB1 were stained red and green, respectively, with specific antibodies; nuclei were stained blue with DAPI (or Hoechst). Cells with human cytokeratin staining and two nuclei, one of which with bright DAPI-positive heterochromatic spots characteristic of mouse cells, were considered heterokaryons.\nHeterokaryons were produced and scored as in panel A; 150 heterokaryons were evaluated for HMGB1 transfer into recipient mouse nuclei for each of the 2 classes (leptomycin and control). The 50% level is equivalent to complete equilibration.\nHeLa cells were plated on glass coverslips in a 6-well dish (100 000 cells/dish). After 16 hours, 200 000 Hmgb1−/− mouse fibroblasts were plated on the same coverslips. Following a 3-hour incubation in the presence of 100 μg/ml cycloheximide, the cells were washed with PBS and treated with 100 μl of prewarmed 50% PEG-6000 in PBS for 1 min. After 3 washes with PBS, the cells were incubated with DMEM containing 100 μg/ml cycloheximide for 4 hours, and then fixed with 4% paraformaldehyde. Immunofluorescence was performed using anti-human cytokeratin (Santa Cruz) and anti-HMGB1 antibodies, and chromatin was visualized by DAPI staining. When indicated, 150 nM leptomycin B (a kind gift of Barbara Wolff, Novartis, Vienna) was added to the medium together with cycloheximide."}, "CRM1 exportin": {"target": "CRM1 exportin (Homo sapiens, UniProt O14980)", "sequence (O14980 whole entry)": "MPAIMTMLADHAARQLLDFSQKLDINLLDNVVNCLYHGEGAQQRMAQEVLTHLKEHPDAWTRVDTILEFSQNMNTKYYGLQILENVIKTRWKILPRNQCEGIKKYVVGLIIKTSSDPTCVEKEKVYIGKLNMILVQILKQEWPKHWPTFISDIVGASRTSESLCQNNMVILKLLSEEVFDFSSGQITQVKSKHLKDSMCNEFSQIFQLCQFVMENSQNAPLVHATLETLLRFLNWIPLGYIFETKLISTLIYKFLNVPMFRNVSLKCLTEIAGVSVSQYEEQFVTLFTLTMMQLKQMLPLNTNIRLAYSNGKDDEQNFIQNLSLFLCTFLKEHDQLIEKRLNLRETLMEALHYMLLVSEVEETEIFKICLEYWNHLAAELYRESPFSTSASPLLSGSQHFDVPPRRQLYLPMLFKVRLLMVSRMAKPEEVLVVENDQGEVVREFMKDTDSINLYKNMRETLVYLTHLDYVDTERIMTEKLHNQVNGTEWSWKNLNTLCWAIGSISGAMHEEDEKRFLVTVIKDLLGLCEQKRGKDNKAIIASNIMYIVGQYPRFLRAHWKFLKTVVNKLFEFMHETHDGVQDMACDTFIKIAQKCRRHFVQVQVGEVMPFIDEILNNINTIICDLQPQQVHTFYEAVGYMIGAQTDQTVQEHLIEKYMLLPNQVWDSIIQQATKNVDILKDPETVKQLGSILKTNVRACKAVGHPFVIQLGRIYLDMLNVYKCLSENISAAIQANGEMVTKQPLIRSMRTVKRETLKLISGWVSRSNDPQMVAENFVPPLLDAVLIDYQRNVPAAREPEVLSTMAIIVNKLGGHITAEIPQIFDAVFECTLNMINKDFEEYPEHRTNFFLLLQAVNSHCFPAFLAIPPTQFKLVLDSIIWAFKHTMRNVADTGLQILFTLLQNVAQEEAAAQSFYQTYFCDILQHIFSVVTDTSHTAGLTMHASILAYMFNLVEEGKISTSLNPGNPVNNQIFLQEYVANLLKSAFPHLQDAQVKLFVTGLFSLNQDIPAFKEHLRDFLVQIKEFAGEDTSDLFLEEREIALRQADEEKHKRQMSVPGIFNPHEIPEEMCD", "test": "Pull down assay with labeled CRM1", "details": "0.4 μM (400 nM) leptomycin B in the binding buffer", "description": "Labeled CRM1 protein was mixed with beads bearing GST-NS2 immobilized onto Glutathione Sepharose or BSA, tailless HMGB1 (boxA+B) or individual boxes covalently linked to Sepharose. Aliquots representing the input material (In), the fourth wash (W4), the material remaining bound to beads after 5 washes (bound, B), and the unbound material (output, O) were electrophoresed and autoradiographed.\nCRM1 protein was in vitro transcribed-translated with the TnT Coupled Reticulocyte Lysate System (Promega) following the manifacturer's protocol, using pSGCRM1 plasmid as template. Seven μl of freshly made [^35S]-Met labeled CRM1 were incubated in 15 μl RAN Buffer (50 mM Tris-HCl pH 7.5, 200 mM NaCl, 2 mM MgCl2, 10% glycerol), 5 μl of 6×CRM1 buffer (20 mM HEPES-KOH pH 7.5, 80 mM CH3COOK, 4 mM Mg (CH3COO)2, 250 mM sucrose, 2.5 mM DTT), 1 mg/ml BSA, 400 nM Leptomycin B where indicated, and approximately 10 μl of beads bearing immobilized GST-NS2, BSA, recombinant tailless HMGB1 (HMGB1ΔC, Muller et al., 2001b), boxA, or boxB. GST-NS2 was coupled to Gluthatione Sepharose (Amersham), the other proteins were covalently cross-linked to Activated Sepharose-CH (Amersham). The incubation was for one hour at 4° C. on a rotating wheel. The beads were pelleted by centrifugation, supernatants were dried in Savant. […]"}, "3T3 cells": {"test_system": "3T3 cells", "test": "HMGB1 acetylation pattern by 2D gel electrophoresis and anti-HMGB1 blot after deacetylase inhibitors", "type": "cell-based, mouse", "details": "for hyperacetylation of HMGB1: cell lines with low complexity of HMGB1 acetylation (3T3 mouse fibroblasts, HeLa cells, HEK cells)", "procedure": "(C) Most cell lines contain 2 isoforms of HMGB1, and the protein can be hyperacetylated with TSA treatment. 3T3 cells were incubated for 6 hours in DMEM, or DMEM supplemented with 10 ng/ml TSA, then collected and lysed.\nAbout 50 μg of purified HMGB1 or about 250 μg of total cellular protein were added to 350 μl of rehydration buffer (RB), containing 8 M urea, 2% CHAPS, 20 mM dithioerythritol (DTE), 0.8% IPG buffer (carrier ampholytes, pH 3-10 non-linear or pH 4-7 linear). Samples were applied on 18 cm polyacrylamide gel strips (pH range: 3-10 NL, or pH 4-7 L). Isoelectrophocusing (IEF) was performed in IPGphor (Pharmacia Biotech). IEF was stopped at 75000-90000 VoltHours. Second dimension runs were performed using a Protean II apparatus (Bio-Rad). After IEF, strips were soaked first in equilibration buffer (EB: 6 M urea, 3% SDS, 375 mM Tris pH 8.6, 30% glycerol, 2% DTE), then in EB containing 3% iodoacetamide (LAA) and traces of bromophenol blue (BBP). Strips were then applied onto 10%-12% polyacrylamide gels. Gels were run at 90 V for about 16 hours, and were then either silver stained or transferred onto nitrocellulose membranes (ECL, Amersham) in 25 mM Tris pH 7.5, 0.192 M glycine, 20% methanol."}, "3134 mouse fibroblasts": {"test_system": "3134 mouse fibroblasts", "test": "HMGB1-GFP relocation to the cytoplasm in fibroblasts after TSA", "type": "cell-based", "details": "10 ng/ml TSA for 3 hours", "procedure": "(§2) Fibroblasts and HeLa cells were cultured in Dulbecco's modified Eagle's medium (DMEM) supplemented with 10% fetal bovine serum (FBS, from Gibco), 100 IU/ml of penicillin and 100 μg/ml streptomycin, in 5% CO2 humidified atmosphere. HeLa cells and 3134 mouse fibroblasts were transfected by calcium phosphate co-precipitation. To express fluorescent proteins, 3×10^5 cells were plated in 6 cm dishes and were transiently transfected with 8 μg of the appropriate plasmid. Cells were observed 36 hours after transfection. The average amount of HMGB1-GFP in the cell population was between 1 and 3% of HMGB1 (as measured by immunoblotting with anti-HMGB1 antibodies). About 24 hours after transfection, 3134 fibroblasts were treated for 3 hours with 10 ng/ml trichostatin A (TSA, Sigma) before fixing and imaging. Subclone 12[−] of U937 promoyelocitic cells, kindly provided by M. Alfano and G. Poli (HSR, Milano), was grown in RPMI medium (Gibco) supplemented with 10% FCS, L-glutamine, 100 U/ml penicillin 100 μg/ml streptomycin, exposed for 3 days to 0.1 μM vitamin D3 (Roche) to promote CD14 expression, and stimulated with 100 ng/ml LPS (Sigma catalogue #L4391) or with 10 ng/ml TSA for 3 hours. For the experiments with kinase inhibitors, cells were exposed to 1 μM U0126, 10 μM SB203580 or 30 μM SP600125 (all from Calbiochem) at the same time as LPS, and lasting for 3 hours. […]"}, "U937.12 cells [3]": {"test_system": "U937.12 cells", "test": "HMGB1 relocation in U937.12 cells treated with TSA without LPS (immunofluorescence)", "type": "cell-based", "details": "10 ng/ml TSA for 3 hours, no LPS", "procedure": "as §2"}}, "note": "“Also recorded” adds a separate entry of the source. Read-outs that look alike come from different tables or passages of the source.", "data": [{"molecule": "C[C@@H]1C[C@@H]([C@H](O)CC2CC(=O)NC(=O)C2)C(=O)[C@@H](C)C1", "note": "[cycloheximide]", "values": [{"measurement": "HMGB1 translocation after LPS", "setting": "U937.12 cells [1]; 10 μM cycloheximide starting 20 minutes prior to LPS addition", "value": "does not block HMGB1 translocation"}, {"measurement": "HMGB1 translocation to vesicles when LPS is added", "setting": "U937.12 cells [1]; 10 μg/ml cycloheximide", "value": "still translocate HMGB1 to vesicles"}, {"measurement": "HMGB1 translocation to cytoplasmic vesicles after LPS", "setting": "human monocytes", "value": "not inhibited"}]}, {"molecule": "C[S+]([O-])c1ccc(-c2nc(-c3ccncc3)c(-c3ccc(F)cc3)[nH]2)cc1", "note": "(centres unmarked) [SB203580]", "values": [{"measurement": "HMGB1 relocation to vesicles after LPS", "setting": "U937.12 cells [1]; 10 μM SB203580 together with LPS, 3 hours", "value": "has no effect; also recorded: substantial"}]}, {"molecule": "CCC(=C/[C@H](C)C/C=C/C(C)=C/[C@@H](C)C(=O)[C@@H](C)[C@H](O)[C@@H](C)C/C(C)=C/C(=O)O)/C=C/[C@@H]1OC(=O)C=C[C@@H]1C", "note": "[leptomycin B]", "values": [{"measurement": "HMGB1 transfer between human and mouse nuclei in heterokaryons", "setting": "[2]; listed as Leptomycin B", "value": "substantially reduces, but does not abolish"}, {"measurement": "HMGB1 transfer between human and mouse nuclei in heterokaryons", "setting": "[2]; listed as leptomycin", "value": "strongly reduced"}, {"measurement": "HMGB1 migrated to the mouse nucleus", "setting": "[2]; vast majority of leptomycin-treated heterokaryons, after 4 hours, 50% level = complete equilibration", "value": "less than 5%"}, {"measurement": "binding of labeled CRM1 to GST-NS2 and the HMG boxes (BoxA+B)", "setting": "CRM1 exportin", "value": "did not bind"}, {"measurement": "binding of labeled CRM1 to GST-NS2 and the HMG boxes (BoxA+B)", "setting": "CRM1 exportin; listed as leptomicin B", "value": "prevents binding of CRM1"}, {"measurement": "HMGB1 relocation to vesicles after LPS", "setting": "U937.12 cells [1]; 150 nM leptomycin together with LPS, 3 hours", "value": "partially blocked"}, {"measurement": "HMGB1 relocation to vesicles after LPS", "setting": "U937.12 cells [1]; 150 nM leptomycin together with LPS, 3 hours, listed as leptomycin", "value": "blocks HMGB1 relocation almost completely"}]}, {"molecule": "CC(/C=C/C(=O)NO)=C\\[C@@H](C)C(=O)c1ccc(N(C)C)cc1", "note": "[TSA, trichostatin A]", "values": [{"measurement": "HMGB1 isoform spots on 2D gel (hyperacetylation)", "setting": "3T3 cells; 3T3 cells, 10 ng/ml TSA, 6 hours, control 2 spots", "value": "several HMGB1 spots appeared"}, {"measurement": "hyperacetylation of HMGB1", "setting": "3T3 cells", "value": "hyperacetylation could be obtained"}, {"measurement": "relocation of HMGB1-GFP to the cytoplasm", "setting": "3134 mouse fibroblasts", "value": "causes a significant relocation of HMGB1-GFP to the cytoplasm; also recorded: sufficient to relocate a significant amount of HMGB1 to the cytoplasm"}, {"measurement": "cytoplasmic expansion", "setting": "U937.12 cells [3]", "value": "do not show cytoplasmic expansion"}, {"measurement": "relocation of HMGB1 to cytoplasmic vesicles", "setting": "U937.12 cells [3]", "value": "a fraction of HMGB1 is relocalized to cytoplasmic vesicles; also recorded: a fraction of HMGB1 started to shift to cytoplasmic vesicles"}]}, {"molecule": "C[C@@H]1NC(=O)[C@H]2CCCN2C(=O)[C@H](CCCCCC(=O)[C@@H]2CO2)NC(=O)[C@@H](C)NC1=O", "note": "[HC-toxin]", "values": [{"measurement": "hyperacetylation of HMGB1", "setting": "3T3 cells", "value": "hyperacetylation could be obtained"}]}, {"molecule": "N#CC(=C(/N)Sc1ccccc1N)/C(C#N)=C(\\N)Sc1ccccc1N", "note": "[U0126]", "values": [{"measurement": "HMGB1 relocation to vesicles after LPS", "setting": "U937.12 cells [1]", "value": "blocks it completely; also recorded: inhibition of HMGB1 translocation; also recorded: almost completely blocked"}, {"measurement": "HMGB1 translocation after LPS stimulation after removal of the inhibitor", "setting": "U937.12 cells [1]", "value": "restored"}]}, {"molecule": "CCCC(=O)[O-].[Na+]", "note": "[sodium butyrate]", "values": [{"measurement": "hyperacetylation of HMGB1", "setting": "3T3 cells", "value": "hyperacetylation could be obtained"}]}]}
